Data taken from the NIST ThermoML archive (doi:10.1016/j.jct.2019.03.005).

Conditions: Liquid, Frequency=3 MHz, Pulse-echo method

CC(C)(C)c1ccccc1 [(1,1-dimethylethyl)benzene]
speed of sound [m/s]
Conditions	298.15 K	313.15 K	333.15 K	353.15 K	373.15 K	393.15 K	413.15 K	433.15 K
100 kPa	1316.4	1255.3	1176.9	1101.8	1029.9	959.3	890.9	823.7
20100 kPa	1415.8	1360.3	1290.1	1223.5	1161.2	1101.1	1042.6	987.2
40100 kPa	1501.7	1450.3	1385.4	1324.4	1267.7	1213.3	1161.1	1112.1
60100 kPa	1578.5	1529.8	1469	1411.8	1359	1308.5	1260.2	1215.1
80100 kPa	1647.9	1601.7	1543.9	1489.6	1439.6	1392	1346.6	1304.3
100100 kPa	1711.7	1667.3	1612.5	1560.2	1512.4	1466.9	1423.8	1383.6

CC(C)c1ccccc1 [isopropylbenzene]
speed of sound [m/s]
Conditions	298.15 K	313.15 K	333.15 K	353.15 K	373.15 K	393.15 K	413.15 K	433.15 K
100 kPa	1309.1	1247.6	1168.5	1091.8	1017.8	945.6	875	–
10100 kPa	–	–	–	–	–	–	–	897.7
20100 kPa	1406.9	1351.3	1280.5	1213.2	1149.2	1088.1	1029.6	974
40100 kPa	1491.7	1440	1374.7	1313.2	1255.1	1200.1	1147.8	1098.9
60100 kPa	1566.8	1518.3	1457.2	1399.6	1345.6	1294.7	1246.5	1201.3
80100 kPa	1634.8	1588.9	1530.9	1476.5	1425.6	1377.6	1332.1	1289.9
100100 kPa	1697.4	1653.3	1598	1546	1497.4	1451.6	1408.6	1368.6
